From PubChem BioAssay (NCI) come the findings set out here.

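Cells were grown in 96-well plates and exposed to each compound for 48 hours at five concentrations; endpoints were interpolated linearly between bracketing concentrations, or set to the highest concentration if not reached. The concentration for full growth arrest is given as TGI.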

Experiment in all cases: NCI-60 cell line screen, 48 h
In assay [1] the test system is UO-31 renal.
Assay [2] concerns SF-539 CNS.
The test system of assay [3] is HS 578T breast.
Assay [4] concerns MDA-MB-435.
The test system of assay [5] is NCI-H226 lung.
Assay [6] relates to COLO 205 colon.
Assay [7] deals with LOX IMVI melanoma.
Assay [8] relates to MALME-3M melanoma.
For assay [9], the system named is K-562 leukemia.
Assay [10] relates to HL-60(TB) leukemia.

Take `Cc1cccc2c(N)c3cccc(C(=O)NCC[N+](C)(C)Cc4sc(N5CCOCC5)nc4[N+](=O)[O-])c3nc12`: the TGI is 35.7 µM in assay [1]; 10 µM in [2]; 28.5 µM in [3]; 35.2 µM in assay [4]; 17.4 µM in [5]; over 100 µM in [6]. For the same compound, the TGI in assay [7] was 3.78 µM; in assay [8] it was 24.7 µM; in assay [9], over 100 µM.

Regarding `CC1NOC(NS(=O)(=O)c2ccc(N=Nc3c(O)c(C(=O)O)cc4ccccc34)cc2)C1C` (stereo unspecified), the TGI in assay [1], in assay [2], in assay [3], in assay [4], in assay [5] and in assay [6] was over 100 µM in each case. Besides, the TGI in [8], in [10] and in assay [9] was over 100 µM throughout.

With `Cc1cc2nc3n(c2cc1C)C(c1c(F)cccc1F)SC3` (stereo unspecified), the TGI in assay [1] was over 10 µM; in assay [2] it was 38.2 µM; in [3], 54.2 µM; in assay [4] it was 30.9 µM; in assay [5], 23.8 µM; in assay [6], 44.6 µM. Besides, the TGI was determined as 30.3 µM in [7], 65.1 µM in [8] and 63.9 µM in assay [9].

As to `O=C1c2ccccc2C2(c3ccc(Cl)cc3)NCc3ccccc3CN12` (stereo unspecified), the TGI was 78.1 µM in [1]; 29.8 µM in [2]; 56.7 µM in assay [3]; over 100 µM in assay [4]; 28.3 µM in assay [6]; 29.7 µM in [7]. Further, the results for the TGI in assay [10] and in assay [9] were 40.6 µM and over 100 µM, respectively.

Consider `O=c1c2c([nH]c3cc4c(cc13)OCO4)-c1ccccc1CCC2`, for which the TGI in [1], in [2], in assay [3], in [4], in assay [5] and in assay [6] was over 50 µM throughout. Moreover, the TGI in [7], in [8] and in [9] was over 50 µM each time.

As for `c1ccc(C(CCN2CCCC2)c2ccccn2)cc1` (stereo unspecified), the TGI in [1], in [3], in [4], in assay [5], in assay [6] and in assay [7] was over 100 µM in each case. Also, the TGI in [8] and in assay [9] was over 100 µM throughout.

As to `CCC(=N\NC(N)=S)/C(C)=N/O`, the TGI in assay [1], in assay [2], in assay [3], in [4], in assay [5] and in [6] was over 100 µM throughout. In addition, the TGI in [7], in [8] and in assay [9] was over 100 µM in each case.

On to `c1ccc([C@H]2CN3CCSC3=N2)cc1`, for which the TGI in assay [1], in assay [2], in assay [4], in assay [5], in assay [6] and in [7] was over 100 µM in each case. Besides, the TGI in assay [8], in assay [10] and in assay [9] was over 100 µM each time.

Take `Cc1cc(S(=O)(=O)O)ccc1N=Nc1ccc(N=Nc2c(O)ccc3ccccc23)c(C)c1`: the TGI in [1], in [3], in assay [4], in [5], in assay [6] and in assay [7] was over 100 µM throughout. Moreover, the TGI in [8] and in [9] was over 100 µM throughout.

Take `CC(=O)Oc1ccc(OC(Oc2ccccc2)c2ccccc2)cc1` (stereo unspecified): the TGI in assay [1] was 88.9 µM; in assay [2] it was 49.8 µM; in [4] it was 94.3 µM; in assay [5], 69.7 µM; in assay [6], over 100 µM; in assay [7], 52.6 µM. Further, the TGI in assay [8] was 52.9 µM; in assay [10], 41.8 µM; in [9], over 100 µM.

On to `CC(O)(c1ccccc1)c1nccc2ccccc12` (stereo unspecified), for which the TGI in assay [1] is over 100 µM; in [3], over 100 µM; in assay [4] it was 39.2 µM; in assay [5], over 100 µM; in assay [6] it was over 100 µM; in assay [7] it was over 100 µM. For the same compound, the TGI in assay [8], in [10] and in assay [9] was over 100 µM each time.

For the compound `C=CCC1NCCC2=C1C(S(=O)(=O)c1ccc(C)cc1)c1ccccc12` (stereo unspecified), the TGI in assay [1] was 20.5 µM; in assay [3], 35.1 µM; in [4], 17.5 µM; in assay [5] it was 35.9 µM; in [6] it was 4.29 µM; in [7], 23.1 µM. Further, the TGI in [8] amounted to 24 µM; in [9], 63.4 µM.

For the compound `COc1ccc(N2C(=O)C3c4[nH]c5ccccc5c4C4CCC(C(C)C)CC4C3C2=O)cc1` (stereo unspecified), the TGI in assay [1], in [3], in assay [4], in assay [5], in assay [6] and in [7] was over 100 µM in each case. Moreover, the TGI in [8] and in assay [9] was over 100 µM throughout.

As to `COCC(=O)[C@]1(O)Cc2c(O)c3c(c(O)c2[C@@H](OC2CC(N)C(O)C(C)O2)C1)C(=O)c1c(OC)cccc1C3=O` (stereo partly specified), the TGI was determined as 0.231 µM in assay [1]; 0.312 µM in [2]; 0.0892 µM in assay [3]; 0.665 µM in [5]; 1.63 µM in [6]; 0.148 µM in [7]. The TGI came out at 0.335 µM in assay [8], 0.184 µM in assay [10] and 0.785 µM in assay [9].

With `O=C(CCc1cc(O)cc(O)c1)NCCc1ccc(O)c(O)c1`, the TGI is over 100 µM in assay [1]; over 100 µM in assay [2]; over 100 µM in [3]; 52.8 µM in [4]; over 100 µM in assay [5]; over 100 µM in [6]. Besides, the TGI in assay [7] was over 100 µM.

Consider `O=C1CCC2=C(CCC2)N1CCc1ccc2c(c1)OCO2`, for which the TGI in [1], in [2], in assay [3], in [5], in assay [6] and in assay [7] was over 100 µM each time. For the same compound, the TGI is over 100 µM in [8], 55.7 µM in assay [10] and over 100 µM in assay [9].

Consider `CCCCCCC(CCl)c1sc(-c2csc(CCNC(=O)OC(C)(C)C)n2)nc1C(=O)OC` (stereo unspecified), for which the TGI was 67.8 µM in assay [1]; 44.4 µM in [2]; 65.9 µM in [3]; 30.4 µM in [4]; over 100 µM in assay [6]; 25.9 µM in [7]. In addition, the TGI in assay [10] and in assay [9] was over 100 µM each time.

Consider `CC(/C=N/NC1=NCCCCN1)=N\NC1=NCCCCN1`, for which the TGI in assay [1] was over 100 µM; in [2], over 100 µM; in assay [3], over 100 µM; in assay [4] it was over 100 µM; in assay [5], over 100 µM; in assay [6] it was 57 µM. Further, the TGI in assay [7] was over 100 µM; in [8], 84 µM; in [9], over 100 µM.

On to `C1OCN2c3nonc3N3COCN4c5nonc5N1C2C43` (stereo unspecified), for which the TGI in assay [1], in assay [2], in assay [3], in assay [4], in assay [5] and in [6] was over 100 µM in each case. The TGI in assay [8], in assay [10] and in assay [9] was over 100 µM each time.

With `Cc1ccc(S(=O)(=O)n2cc(-c3cnc(N)c(Br)n3)c3ccccc32)cc1`, the TGI in assay [1] was over 100 µM; in assay [2] it was over 23.3 µM; in assay [3] it was 2.97 µM; in assay [4] it was 0.588 µM; in assay [5], over 100 µM; in [6] it was 10 µM. Also, the TGI in assay [7] was over 100 µM; in assay [10] it was 6.58 µM; in [9] it was over 100 µM.

Take `Cc1cc(NC2=NCCO2)c2c(c1C)CCCC2`: the TGI in assay [1] was 30.7 µM; in [2], 22.6 µM; in assay [3], over 100 µM; in assay [4] it was 39.5 µM; in assay [5] it was 12.4 µM; in assay [6], 46.6 µM. Besides, the TGI in assay [8] was found to be 25.9 µM; in [10], 33.2 µM.

As for `CC(NC(=O)C(C)C(=O)NCc1ccc(C(F)(F)F)cc1)C(N)=O` (stereo unspecified), the TGI in assay [1], in assay [2], in assay [3], in [4], in assay [5] and in assay [6] was over 100 µM in each case. The TGI in assay [8], in assay [10] and in assay [9] was over 100 µM in each case.

For `CC(C)(C)OC(=O)NC(CCCCNC(=O)OCc1ccccc1)C(=O)NC(CCCCNC(=O)OCc1ccccc1)C(=O)ON1C(=O)CCC1=O` (stereo unspecified), the TGI in assay [1], in [3], in [5], in assay [6], in assay [8] and in assay [10] was over 100 µM in each case. In assay [9], this compound displayed a TGI of over 100 µM.
